In article PMC9100275, “Development of 1-(4-(Substituted)piperazin-1-yl)-2-((2-((4-methoxybenzyl)thio)pyrimidin-4-yl)oxy)ethanones That Target Poly (ADP-Ribose) Polymerase in Human Breast Cancer Cells” (Molecules, 2022):
Read-outs that look alike come from different tables or passages of the source.

How the values were obtained:
PARP1 [1] = molecular target: T1, PARP1 (Homo sapiens, UniProt P09874); test: colorimetric PARP activity assay with recombinant human PARP enzyme; % inhibition at […] ([…] at […]); assay type: biochemical
T1 sequence (P09874 2-1014): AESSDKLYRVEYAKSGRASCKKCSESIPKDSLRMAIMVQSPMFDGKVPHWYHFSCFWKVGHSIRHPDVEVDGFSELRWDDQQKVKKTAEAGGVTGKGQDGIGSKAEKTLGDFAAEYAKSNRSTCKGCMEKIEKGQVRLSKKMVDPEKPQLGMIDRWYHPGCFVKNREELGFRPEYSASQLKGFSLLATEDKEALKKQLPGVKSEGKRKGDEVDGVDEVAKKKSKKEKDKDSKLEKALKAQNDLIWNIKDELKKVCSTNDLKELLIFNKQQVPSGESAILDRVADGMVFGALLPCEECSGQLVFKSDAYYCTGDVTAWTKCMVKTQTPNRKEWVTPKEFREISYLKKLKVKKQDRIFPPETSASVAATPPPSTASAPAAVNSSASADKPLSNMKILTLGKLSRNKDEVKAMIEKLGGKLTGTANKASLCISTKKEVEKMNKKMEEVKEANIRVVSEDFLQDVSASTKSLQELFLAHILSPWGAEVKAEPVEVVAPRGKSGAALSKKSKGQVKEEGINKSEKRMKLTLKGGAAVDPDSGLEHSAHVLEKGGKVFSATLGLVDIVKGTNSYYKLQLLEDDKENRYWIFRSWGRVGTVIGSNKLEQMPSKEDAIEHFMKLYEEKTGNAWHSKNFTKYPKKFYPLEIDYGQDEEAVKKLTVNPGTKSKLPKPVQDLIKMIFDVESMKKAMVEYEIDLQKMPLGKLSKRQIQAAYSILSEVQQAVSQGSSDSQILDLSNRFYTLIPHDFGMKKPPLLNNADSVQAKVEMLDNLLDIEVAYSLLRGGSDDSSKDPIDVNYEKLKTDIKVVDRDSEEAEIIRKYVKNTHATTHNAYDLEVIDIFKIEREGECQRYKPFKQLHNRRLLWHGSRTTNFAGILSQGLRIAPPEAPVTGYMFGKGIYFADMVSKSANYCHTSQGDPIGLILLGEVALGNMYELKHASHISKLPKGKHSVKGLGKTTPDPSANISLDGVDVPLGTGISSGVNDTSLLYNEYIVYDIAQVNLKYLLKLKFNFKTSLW

PARP1 [2] = molecular target: T1, PARP1; test: as above; assay type: biochemical; remark: listed apart in the source

inhibition at 10 µM (PARP1 [1]) [%] | inhibition at 10 µM (PARP1 [2]) [%] | Compound
70.3 |  | COc1ccc(CSc2nccc(OCC(=O)N3CCN(c4cccc(Cl)c4Cl)CC3)n2)cc1 [5a, 1-(4-(2,3-Dichlorophenyl)piperazin-1-yl)-2-((2-((4-methoxybenzyl)thio)pyrimidin-4-yl)oxy)ethanone]
 | 53 | COc1ccc(CSc2nccc(OCC(=O)N3CCN(c4ccc(C)cc4)CC3)n2)cc1 [5e, 2-((2-((4-Methoxybenzyl)thio)pyrimidin-4-yl)oxy)-1-(4-(p-tolyl)piperazin-1-yl)ethanone]
